Experimental data from patent US10722501B2 (BAYER AKTIENGESELLSCHAFT, priority 2016, dated 2020).

Molecular target: T1, recombinant full-length human prolyl endopeptidase (PREP) (Homo sapiens, UniProt P48147)
T1 construct: To recombinant full-length human prolyl endopeptidase (PREP, R&D-Systems, 4308-SE); purchased R&D-Systems 4308-SE
T1 sequence (P48147 1-710): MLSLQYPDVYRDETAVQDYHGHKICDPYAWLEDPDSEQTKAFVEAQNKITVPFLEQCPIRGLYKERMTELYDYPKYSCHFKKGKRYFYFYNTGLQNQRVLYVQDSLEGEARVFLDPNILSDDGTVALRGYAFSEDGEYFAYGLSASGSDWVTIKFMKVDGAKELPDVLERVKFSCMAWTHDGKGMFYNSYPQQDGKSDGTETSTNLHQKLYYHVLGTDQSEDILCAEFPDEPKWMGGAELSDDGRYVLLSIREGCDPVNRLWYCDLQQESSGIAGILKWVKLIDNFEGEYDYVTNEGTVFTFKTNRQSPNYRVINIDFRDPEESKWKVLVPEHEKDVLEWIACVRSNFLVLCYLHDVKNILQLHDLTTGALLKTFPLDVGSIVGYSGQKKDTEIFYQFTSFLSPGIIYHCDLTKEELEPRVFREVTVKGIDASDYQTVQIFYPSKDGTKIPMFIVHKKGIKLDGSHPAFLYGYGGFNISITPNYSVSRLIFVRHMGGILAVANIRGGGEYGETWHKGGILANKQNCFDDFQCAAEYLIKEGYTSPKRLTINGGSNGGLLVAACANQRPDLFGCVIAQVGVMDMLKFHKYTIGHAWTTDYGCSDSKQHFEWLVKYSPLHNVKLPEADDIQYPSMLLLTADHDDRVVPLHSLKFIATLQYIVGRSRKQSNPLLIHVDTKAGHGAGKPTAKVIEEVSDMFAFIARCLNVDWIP
Experiment: Biochemical human prolyl endopeptidase (PREP) assay with fluorescently labelled substrate
Settings: substrate Z-Gly-Pro-AMC 50 μM, 32° C., 60 min; some as mean values from multiple independent determinations
Procedure, shortened: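 0.4 nM (final, example) recombinant PREP in pH 7.5 Tris buffer with EDTA, GSH, BSA and Brij-35; compounds at 1 nM to 30 μM. Reaction started with 50 μM Z-Gly-Pro-AMC and followed by fluorescence (ex 360/em 465 nm) at 32° C for 60 min. IC50 interpolated from percent activity based on initial slopes.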

| IC50 | SMILES |
| --- | --- |
| 1.2 nM | O=C([C@@H]1CCCc2nn(CC3(c4ccc(C(F)(F)F)cc4)CC3)c(=O)n21)N1CC(F)C1 [Example 527, (5S)-5-[(3-Fluoroazetidin-1-yl)carbonyl]-2-({1-[4-(trifluoromethyl)phenyl]cyclopropyl}methyl)-5,6,7,8-tetrahydro[1,2,4]triazolo[4,3-a]pyridin-3(2H)-one] |
| 69 nM | CN(C)C(=O)c1ccc(Cn2nc3n(c2=O)C(C(=O)N2CCCC2)CCC3)cc1 (racemic) [Example 156, N,N-Dimethyl-4-{[(5RS)-3-oxo-5-(pyrrolidin-1-ylcarbonyl)-5,6,7,8-tetrahydro[1,2,4]triazolo[4,3-a]pyridin-2(3H)-yl]methyl}benzamide] |
| 0.99 nM | Cc1cccc(Cn2nc3n(c2=O)C(C(=O)N2CCCC2)CCC3)c1 (racemic) [Example 8, (5RS)-2-(3-Methylbenzyl)-5-(pyrrolidin-1-ylcarbonyl)-5,6,7,8-tetrahydro[1,2,4]triazolo[4,3-a]pyridin-3(2H)-one] |
| 0.85 nM | O=C(C1CC(C(F)(F)F)Cc2nn(Cc3ncc(F)cc3F)c(=O)n21)N1CC[C@H](F)C1 (mixture of isomers) [Example 569, (5RS,7RS)-2-[(3,5-Difluoropyridin-2-yl)methyl]-5-{[(3S)-3-fluoropyrrolidin-1-yl]carbonyl}-7-(trifluoromethyl)-5,6,7,8-tetrahydro[1,2,4]triazolo[4,3-a]pyridin-3(2H)-one] |
| 1.4 nM | O=C(C1CC(C(F)(F)F)Cc2nn(Cc3ccc(C(F)(F)F)nc3)c(=O)n21)N1CC[C@H](F)C1 (mixture of isomers) [Example 236, (5RS,7RS)-5-{[(3S)-3-Fluoropyrrolidin-1-yl]carbonyl}-7-(trifluoromethyl)-2-{[6-(trifluoromethyl)pyridin-3-yl]methyl}-5,6,7,8-tetrahydro[1,2,4]triazolo[4,3-a]pyridin-3(2H)-one] |
| 1.03 nM | O=C([C@@H]1CCCc2nn(Cc3ccc(Cl)nc3)c(=O)n21)N1CCC2CC21 (single isomer, unassigned) [Example 198] |
| 0.38 nM | Cc1ccc(C2(Cn3nc4n(c3=O)[C@H](C(=O)N3CC[C@H](F)C3)CCC4)CC2)cc1 [Example 526, (5S)-5-{[(3S)-3-Fluoropyrrolidin-1-yl]carbonyl}-2-{[1-(4-methylphenyl)cyclopropyl]methyl}-5,6,7,8-tetrahydro[1,2,4]triazolo[4,3-a]pyridin-3(2H)-one] |
| 8.4 nM | Cc1cc(Cn2nc3n(c2=O)C(C(=O)N2CCCC2)CCC3)ccn1 (racemic) [Example 15, (5RS)-2-[(2-Methylpyridin-4-yl)methyl]-5-(pyrrolidin-1-ylcarbonyl)-5,6,7,8-tetrahydro[1,2,4]triazolo[4,3-a]pyridin-3(2H)-one] |
| 0.66 nM | CC1Cc2nn(Cc3ccc(C(F)(F)F)nc3)c(=O)n2C(C(=O)N2C[C@@H](F)[C@@H](F)C2)C1 (mixture of isomers) [Example 336, (5RS,7RS)-5-{[(3R,4S)-3,4-Difluoropyrrolidin-1-yl]carbonyl}-7-methyl-2-{[6-(trifluoromethyl)pyridin-3-yl]methyl}-5,6,7,8-tetrahydro[1,2,4]triazolo[4,3-a]pyridin-3(2H)-one] |
| 1.3 nM | O=C(C1CCc2nn(Cc3ccnc(C(F)(F)F)c3F)c(=O)n21)N1CC[C@H](F)C1 (mixture of isomers) [Example 178, (5RS)-5-{[(3S)-3-Fluoropyrrolidin-1-yl]carbonyl}-2-{[3-fluoro-2-(trifluoromethyl)pyridin-4-yl]methyl}-2,5,6,7-tetrahydro-3H-pyrrolo[2,1-c][1,2,4]triazol-3-one] |
| 0.365 nM | N#C[C@@H]1CCCN1C(=O)[C@@H]1CCCc2nn(Cc3ccc(C(F)(F)F)nc3)c(=O)n21 [Example 511, (2S)-1-{[(5S)-3-Oxo-2-{[6-(trifluoromethyl)pyridin-3-yl]methyl}-2,3,5,6,7,8-hexahydro[1,2,4]triazolo[4,3-a]pyridin-5-yl]carbonyl}pyrrolidine-2-carbonitrile] |
| 1.6 nM | O=C(C1CCCc2nn(Cc3cccc(C(F)(F)F)c3)c(=O)n21)N1CCC(F)(F)C1 (racemic) [Example 47, (5RS)-5-[(3,3-Difluoropyrrolidin-1-yl)carbonyl]-2-[3-(trifluoromethyl)benzyl]-5,6,7,8-tetrahydro[1,2,4]triazolo[4,3-a]pyridin-3(2H)-one] |
| 8.7 nM | O=C(C1CCCc2nn(Cc3ccc(OC(F)(F)F)c(F)c3)c(=O)n21)N1CCCC1 (racemic) [Example 67, (5RS)-2-[3-Fluoro-4-(trifluoromethoxy)benzyl]-5-(pyrrolidin-1-ylcarbonyl)-5,6,7,8-tetrahydro[1,2,4]triazolo[4,3-a]pyridin-3(2H)-one] |
| 480 nM | O=C([C@@H]1CCCc2nn(Cc3ccc(Cl)nc3)c(=O)n21)N1CC(F)C(F)C1 (single isomer, unassigned) [Example 551] |
| 5.7 nM | O=C(C1CCCc2nn(Cc3ccc(C(F)(F)F)nc3)c(=O)n21)N1CCCC1 (racemic) [Example 84, (5RS)-5-(Pyrrolidin-1-ylcarbonyl)-2-{[6-(trifluoromethyl)pyridin-3-yl]methyl}-5,6,7,8-tetrahydro[1,2,4]triazolo[4,3-a]pyridin-3(2H)-one] |
| 0.32 nM | O=C([C@@H]1CCCc2nn(Cc3cc(F)c(F)cc3F)c(=O)n21)N1CC[C@H](F)C1 [Example 493, (5S)-5-{[(3S)-3-Fluoropyrrolidin-1-yl]carbonyl}-2-(2,4,5-trifluorobenzyl)-5,6,7,8-tetrahydro[1,2,4]triazolo[4,3-a]pyridin-3(2H)-one] |
| 2.3 nM | O=C(C1CC(C(F)(F)F)Cc2nn(Cc3ncc(Cl)cc3F)c(=O)n21)N1C[C@@H](F)[C@@H](F)C1 (single isomer, unassigned) [Example 267] |
| 33.5 nM | O=C([C@@H]1CCCc2nn(Cc3nnc(C(F)(F)F)o3)c(=O)n21)N1C[C@@H](F)[C@@H](F)C1 [Example 543, (5S)-5-{[(3R,4S)-3,4-Difluoropyrrolidin-1-yl]carbonyl}-2-{[5-(trifluoromethyl)-1,3,4-oxadiazol-2-yl]methyl}-5,6,7,8-tetrahydro[1,2,4]triazolo[4,3-a]pyridin-3(2H)-one] |
| 1.85 nM | O=C([C@@H]1CCCc2nn(Cc3ccc(Cl)nc3)c(=O)n21)N1CCC(F)(F)C1 [Example 423, (5S)-2-[(6-Chloropyridin-3-yl)methyl]-5-[(3,3-difluoropyrrolidin-1-yl)carbonyl]-5,6,7,8-tetrahydro[1,2,4]triazolo[4,3-a]pyridin-3(2H)-one] |
| 0.52 nM | O=C([C@@H]1CCCc2nn(Cc3ccnc(C(F)(F)F)c3F)c(=O)n21)N1C[C@@H](F)[C@@H](F)C1 [Example 480, (5S)-5-{[(3R,4S)-3,4-Difluoropyrrolidin-1-yl]carbonyl}-2-{[3-fluoro-2-(trifluoromethyl)pyridin-4-yl]methyl}-5,6,7,8-tetrahydro[1,2,4]triazolo[4,3-a]pyridin-3(2H)-one] |
| 3.2 nM | O=C(C1CCc2nn(Cc3ccnc(C(F)(F)F)c3F)c(=O)n21)N1CC[C@H](F)C1 (single isomer, unassigned) [Example 180] |
| 7.5 nM | CC1Cc2nn(Cc3ccc(C(F)(F)F)nc3)c(=O)n2C(C(=O)N2C[C@@H](F)[C@@H](F)C2)C1 (single isomer, unassigned) [Example 337] |
| 0.49 nM | O=C([C@@H]1CCCc2nn(Cc3ccc(F)c(F)c3)c(=O)n21)N1C[C@@H](F)[C@@H](F)C1 [Example 467, (5S)-2-(3,4-Difluorobenzyl)-5-{[(3R,4S)-3,4-difluoropyrrolidin-1-yl]carbonyl}-5,6,7,8-tetrahydro[1,2,4]triazolo[4,3-a]pyridin-3(2H)-one] |
| 16 nM | Cc1ccc(Cn2nc3n(c2=O)C(C(=O)N2CCOCC2)CCC3)cc1 (racemic) [Example 159, (5RS)-2-(4-Methylbenzyl)-5-(morpholin-4-ylcarbonyl)-5,6,7,8-tetrahydro[1,2,4]triazolo[4,3-a]pyridin-3(2H)-one] |
| 1.8 nM | O=C([C@@H]1CCCc2nn(Cc3cccc(Cl)n3)c(=O)n21)N1C[C@@H](F)[C@@H](F)C1 [Example 385, (5S)-2-[(6-Chloropyridin-2-yl)methyl]-5-{[(3R,4S)-3,4-difluoropyrrolidin-1-yl]carbonyl}-5,6,7,8-tetrahydro[1,2,4]triazolo[4,3-a]pyridin-3(2H)-one] |
| 0.71 nM | O=C(C1CCCc2nn(Cc3cccc(C(F)(F)F)c3F)c(=O)n21)N1CCCC1 (racemic) [Example 71] |
| 6.5 nM | O=C([C@@H]1CCCc2nn(Cc3ccc(F)c(Cl)c3)c(=O)n21)N1CC[C@H](O)C1 [Example 97, (5S)-2-(3-Chloro-4-fluorobenzyl)-5-{[(3S)-3-hydroxypyrrolidin-1-yl]carbonyl}-5,6,7,8-tetrahydro[1,2,4]triazolo[4,3-a]pyridin-3(2H)-one] |
